Data: patent publication US20220144812A1, “QUINOLINE DERIVATIVES AND THEIR USE FOR THE TREATMENT OF CANCER” (Epizyme, Inc., priority 2019, published 2022)

Assays:
[1] = tested on: H3K18Ac in HB-CLS-2 cells; assay: H3K18AC in-cell western (ICW) assay; type: cell-based; settings: H3K18Ac in-cell western, HB-CLS-2 cells; read-out: CREBBP ICW IC50
Text: The following example describes methods and materials relating to an H3K18AC in-cell western assay. IC50 values (micromolar (μM)) are summarized in Table 1, Table 2, and Table 3 under the column labeled: “CREBBP ICW IC50 (micromolar).”
MATERIALS: HB-CLS-2 cell line, DMEM: Ham's F12 medium (1:1 mixture), penicillin-streptomycin, heat inactivated fetal bovine serum, D-PBS, Odyssey blocking buffer, 800CW goat anti-rabbit IgG (H+L) antibody, Licor Odyssey CLx Infrared Scanner, H3K18Ac rabbit monoclonal antibody. DRAQS fluorescent probe solution (5 mM), and 100% methanol were commercially available. HB-CLS-2 adherent cells were maintained in complete growth medium (DMEM: Ham's F12 supplemented with 10% v/v heat inactivated fetal bovine serum) and cultured at 37° C. under 5% CO2.
METHOD: Cell Treatment, ICW for detection of H3K18Ac and DNA content. HB-CLS-2 cells were seeded in assay medium (DMEM: Ham's F12 supplemented with 10% v/v heat inactivated fetal bovine serum and 1% Penicillin/Streptomycin) at a concentration of 80,000 cells per mL in a Poly-D-Lysine coated 384-well culture plates at 50 μL per well. Plates were incubated at room temperature for 30 minutes and then incubated at 37° C., 5% CO2 for additional 16-24 hours. Compounds and DMSO normalization were then added directly to the plates using a D300 Digital Dispenser and returned to the incubator at 37° C., 5% CO2 for 2 hrs. After the incubation, the contents of the plates were discarded into the appropriate waste stream and blotted on laboratory tissue to remove residual liquid. 90 μL per well of 100% ice cold methanol was added to the plates and incubated at room temperature for 15 minutes. Then methanol was then discarded into the appropriate waste stream and the plates again blotted on laboratory tissue to remove residual liquid. Plates were transferred to a Biotek 405 plate washer and washed 3 times with 100 μL per well of wash buffer (1X PBS containing 0.1% Triton X-100 (v/v)). Next, 50 μL per well of Odyssey blocking buffer with 0.1% Tween 20 (v/v) was added to each plate and incubated for 1 hour at room temperature. Blocking buffer was removed and 20 μL of primary antibody were added (α-H3K18Ac diluted 1:800 in Odyssey buffer with 0.1% Tween 20 (v/v)) and plates were incubated overnight (16 hours) at 4° C. Plates were washed 5 times with 100 μL per well of wash buffer. Next 20 μL per well of secondary antibody was added (1:400 800CW goat anti-rabbit IgG (H+L) antibody, 1:2000 DRAQ5 in Odyssey buffer with 0.1% Tween 20 (v/v)) and incubated for 1 hour at room temperature. The plates were washed 3 times with 100 μL per well wash buffer then 3 times with 100 μL per well of water. Plates were allowed to dry at room temperature then imaged on the Licor Odyssey CLx machine which measured integrated intensity at 700 nm and 800 nm wavelengths. Both 700 and 800 channels were scanned.

CREBBP (1084-1701) = target: T1, CREBBP (1084-1701) (Homo sapiens, UniProt Q92793); assay: Biochemical assay for CREBBP (1084-1701), SAMDI; settings: SAMDI, read-out: CREBBP Biochemistry IC50
T1 construct: measured in the following biochemical assay using CREBBP (1084-1701); purchased
T1 sequence (Q92793 1084-1701): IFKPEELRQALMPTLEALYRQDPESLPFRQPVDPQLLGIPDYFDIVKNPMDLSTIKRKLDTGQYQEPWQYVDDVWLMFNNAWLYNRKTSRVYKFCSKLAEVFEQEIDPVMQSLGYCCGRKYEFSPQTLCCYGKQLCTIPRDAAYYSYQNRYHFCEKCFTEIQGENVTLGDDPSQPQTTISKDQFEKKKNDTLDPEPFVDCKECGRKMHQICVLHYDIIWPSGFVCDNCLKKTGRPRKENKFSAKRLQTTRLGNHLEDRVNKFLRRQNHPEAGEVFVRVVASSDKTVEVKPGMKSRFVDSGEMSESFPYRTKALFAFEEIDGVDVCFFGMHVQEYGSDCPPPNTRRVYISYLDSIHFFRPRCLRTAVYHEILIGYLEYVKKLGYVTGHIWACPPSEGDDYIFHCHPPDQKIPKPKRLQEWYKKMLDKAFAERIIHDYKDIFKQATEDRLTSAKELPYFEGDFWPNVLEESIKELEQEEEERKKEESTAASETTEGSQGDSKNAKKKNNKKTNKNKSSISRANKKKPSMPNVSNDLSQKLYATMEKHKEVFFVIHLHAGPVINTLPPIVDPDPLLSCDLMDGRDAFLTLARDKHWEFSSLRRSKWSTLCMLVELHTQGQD
Text: The following example describes materials and methods relating to a biochemical assay for CREBBP (1084-1701). IC50 values (micromolar (μM)) are summarized in Table 1, Table 2, and Table 3 under the column labeled: “CREBBP Biochemistry IC50 (micromolar).”
MATERIALS: Reagents 1M Tris pH 8.0, Tween 20 10%, DTT, bovine serum gelatin (BSG) 2%, Peptide #233 (biotin-H3 11-25, K14R, K23R), Acetyl-CoA, CREBBP (1084-1701), formic acid (100%), and sodium bicarbonate were commercially available.
METHODS: The effect of compounds was measured in the following biochemical assay using CREBBP (1084-1701). Enzyme mix 30 μL per well was added using a Multi-drop to wells of prepared Compound Stock plate. The enzyme was incubated in the Compound Stock plate for 30 minutes at room temperature. Substrate mix, 20 μL per well, was added to Compound Stock plate using a Multi-drop. The plate was covered and incubate 30 minutes at room temperature. The reaction was stopped with addition of 5 μL per well of 5% formic acid using a Multi-drop. The plate was Incubated for 30 minutes at room temperature. The reaction mixture was neutralized with addition of 5 μL per well of 10% sodium bicarbonate using a Multi-drop. The plate was Incubated for 35 minutes at room temperature. The reaction mixture was Transferred 2.5 μL per well to a SAMDI biochip. The plate was Incubated for 60 minutes at room temperature. The samples were washed, dried, and matrix applied to SAMDI biochip. The SAMDI biochip was then read on the mass spectrometer.

Row | SMILES | IC50 [1] [µM] | IC50 (CREBBP (1084-1701)) [µM]
1 | CCn1ncc(CN(C)C(=O)c2nc(-c3ccccc3OC)nc3ccc(Cl)cc23)c1C [Compound 281] | 1.3 | 0.83
2 | CCn1ncc(CN(C)C(=O)c2nc(-c3ccc(C)cc3)nc3ccc(Cl)cc23)c1C [Compound 282] | 11 | 5.5
3 | CCn1ncc(CN(C)C(=O)c2nc(-c3cccc(Br)c3)nc3ccc(Cl)cc23)c1C [Compound 283] | 0.67 | 0.00089
4 | Cc1c(CN(C)C(=O)c2nc(-c3ccccc3Cl)nc3ccc(Cl)cc23)cnn1C1CC1 [Compound 285] | 2.7 | 4.2
5 | CCn1ncc(CN(C)C(=O)c2nc(-c3ccccc3C#N)nc3ccc(Cl)cc23)c1C [Compound 294] | 0.57 | 0.22
6 | CCn1ncc(CN(C)C(=O)c2nc(-c3cc(Cl)ccc3Cl)nc3ccc(Cl)cc23)c1C [Compound 297] | 3.2 | 1.8
7 | Cc1c(CN(C)C(=O)c2nc(-c3cccc(Cl)c3)nc3ccc(Cl)cc23)cnn1C(C)C [Compound 299] | 0.61 | 0.028
8 | CCn1ncc(CN(C)C(=O)c2nc(-c3cccc(C#N)c3)nc3ccc(Cl)cc23)c1C [Compound 301] | 3.9 | 2
9 | CCN(Cc1cnn(CC)c1C)C(=O)c1cc(-c2ccccc2Cl)nc2ccc(Cl)cc12 [Compound 302] | 8.9 | 2.5
10 | CCc1ccc2nc(-c3ccccc3Cl)nc(C(=O)N(C)Cc3cnn(CC)c3C)c2c1 [Compound 312] | 0.58 | 0.072
11 | CCn1ncc(CN(C)C(=O)c2nc(-c3cscn3)nc3ccc(Cl)cc23)c1C [Compound 313] | 1.9 | 1.9
12 | CCn1ncc(CN(C)C(=O)c2nc(-c3cccc(F)c3)nc3ccc(Cl)cc23)c1C [Compound 316] | 1.7 | 0.35
13 | CCn1ncc(CN(C)C(=O)c2nc(-c3cccc(C)c3)nc3ccc(Cl)cc23)c1C [Compound 317] | 1.5 | 0.23
14 | CCn1ncc(CN(C)C(=O)c2cc(-c3cccc(Cl)c3)nc3ccc(NC)cc23)c1C [Compound 330] | 17 | 9
15 | CCn1ncc(CN(C)C(=O)c2nc(-c3ccccc3F)nc3ccc(Cl)cc23)c1C [Compound 335] | 1.5 | 0.53
16 | CCc1ncc(CN(C)C(=O)c2cc(-c3ccccc3Cl)nc3ccc(Cl)cc23)n1C [Compound 336] | 1.2 | 0.69
17 | Cc1c(CN(C)C(=O)c2nc(-c3ccccc3Cl)nc3ccc(Cl)cc23)cnn1CC(F)(F)F [Compound 337] | 2.3 | 0.63
18 | CCn1ncc(CN(CCO)C(=O)c2nc(-c3cccc(Cl)c3)nc3ccc(Cl)cc23)c1C [Compound 346] | 1.3 | 0.42
19 | CCN(Cc1cnn(CC)c1C)C(=O)c1nc(-c2cccc(Cl)c2)nc2ccc(Cl)cc12 [Compound 347] | 5.6 | 0.53
20 | CCn1ncc(CN(C)C(=O)c2cc(-c3ccccc3Cl)nc3c(C)cc(Cl)cc23)c1C [Compound 350] | 6.4 | 0.63
21 | CCc1noc(CN(C)C(=O)c2nc(-c3ccccc3Cl)nc3ccc(Cl)cc23)c1C [Compound 356] | 1.9 | 0.4
22 | CCn1ncc(CN(C)C(=O)c2nc(-c3cccc(Cl)c3)nc3ccc(COC)cc23)c1C [Compound 357] | 0.72 | 0.028
23 | CCn1ncc(CN(C)C(=O)c2nc(-c3cn[nH]c3)nc3ccc(Cl)cc23)c1C [Compound 358] | 13 | 16
24 | CCn1ncc(CN(C)C(=O)c2nc(-c3ccccc3Cl)nc3cc(C)c(Cl)cc23)c1C [Compound 359] | 1 | 0.4
25 | CCc1ccc2nc(-c3cccc(Cl)c3)nc(C(=O)N(C)Cc3cnn(CC)c3C)c2c1 [Compound 361] | 0.48 | 0.0028
26 | CCn1ncc(CN(C)C(=O)c2nc(-c3ccccc3C)nc3ccc(Cl)cc23)c1C [Compound 362] | 1.2 | 0.71
